According to PubChem BioAssay AID1963965 (Molecular Pharmacology Branch, DTP, NCI, 2024):

Tested on: 996289-038-R-J1-PDC spheroid viability
Assay: Anticancer human tumor 996289-038-R-J1-PDC patient-derived colon adenocarcinoma cell line growth inhibition [PI3K]
Conditions: spheroids with HUVEC and MSC; for IC50: curve of first compound; for viability, T/C: stronger effect = lower value
Summary of the method: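 Multi-cell spheroids combine tumor cells with HUVEC and human MSCs, treated with targeted agents alone or with inavolisib, alpelisib, duvelisib or copanlisib. Concentrations fall in half-log steps from at or near clinical Cmax, or from 10 microM where Cmax is unknown; viability read-out.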

[1] = second compound 0.0316 µM, first compound 0.0316 µM
[2] = second compound 0.0316 µM, first compound 0.1 µM
[3] = second compound 0.1 µM, first compound 0.0316 µM
[4] = second compound 0.1 µM, first compound 0.1 µM
[5] = second compound 0.316 µM, first compound 0.0316 µM
[6] = second compound 0.316 µM, first compound 0.1 µM
[7] = second compound 1 µM, first compound 0.0316 µM
[8] = second compound 1 µM, first compound 0.1 µM
[9] = second compound 3.16 µM, first compound 0.0316 µM
[10] = second compound 3.16 µM, first compound 0.1 µM
[11] = second compound 10 µM, first compound 0.0316 µM
[12] = second compound 10 µM, first compound 0.1 µM
[13] = second compound 0.0316 µM, first compound 0.316 µM
[14] = second compound 0.0316 µM, first compound 1 µM
[15] = second compound 0.0316 µM, first compound 3.16 µM
[16] = second compound 0.0316 µM, first compound 10 µM
[17] = second compound 0.1 µM, first compound 0.316 µM
[18] = second compound 0.1 µM, first compound 1 µM
[19] = second compound 0.1 µM, first compound 3.16 µM
[20] = second compound 0.1 µM, first compound 10 µM
[21] = second compound 0.316 µM, first compound 0.316 µM
[22] = second compound 0.316 µM, first compound 1 µM
[23] = second compound 0.316 µM, first compound 3.16 µM
[24] = second compound 0.316 µM, first compound 10 µM
[25] = second compound 1 µM, first compound 0.316 µM
[26] = second compound 1 µM, first compound 1 µM
[27] = second compound 1 µM, first compound 3.16 µM
[28] = second compound 1 µM, first compound 10 µM
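Also: spheroids exposed to compounds for seven days before viability read.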
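For viability, T/C in this document: luminescence used as a proxy for viable cell amount; percent viability relative to DMSO vehicle control as 100%.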

With `CC(=O)c1c(C)c2cnc(Nc3ccc(N4CCNCC4)cn3)nc2n(C2CCCC2)c1=O` + Cc1nc(NC(=O)N2CCCC2C(N)=O)sc1-c1ccnc(C(C)(C)C(F)(F)F)c1 the IC50 (second compound 0.0316 µM) was > 0.1 µM, the IC50 (second compound 0.1 µM) was > 0.1 µM and the IC50 (second compound 0.316 µM) was > 0.1 µM. For the same compound, the IC50 (second compound 1 µM) was > 0.1 µM, the IC50 (second compound 3.16 µM) was > 0.1 µM and the IC50 (second compound 10 µM) was < 0.000316 µM. The viability, T/C (second compound 0.0316 µM, first compound 0.000316 µM) was 99.8%, the viability, T/C (second compound 0.0316 µM, first compound 0.001 µM) was 83.4% and the viability, T/C (second compound 0.0316 µM, first compound 0.00316 µM) was 89.9%. It also gave a viability, T/C (second compound 0.0316 µM, first compound 0.01 µM) of 86.4%, a viability, T/C [1] of 110% and a viability, T/C [2] of 99.8%. For the same compound, the viability, T/C (second compound 0.1 µM, first compound 0.000316 µM) was 111%, the viability, T/C (second compound 0.1 µM, first compound 0.001 µM) was 88.9% and the viability, T/C (second compound 0.1 µM, first compound 0.00316 µM) was 107%. For the same compound, the viability, T/C (second compound 0.1 µM, first compound 0.01 µM) was 91.7%, the viability, T/C [3] was 94.7% and the viability, T/C [4] was 81.6%. It also gave a viability, T/C (second compound 0.316 µM, first compound 0.000316 µM) of 81.5%, a viability, T/C (second compound 0.316 µM, first compound 0.001 µM) of 78.1% and a viability, T/C (second compound 0.316 µM, first compound 0.00316 µM) of 80%. The viability, T/C (second compound 0.316 µM, first compound 0.01 µM) was 80.2%, the viability, T/C [5] was 86.4% and the viability, T/C [6] was 77.7%. The viability, T/C (second compound 1 µM, first compound 0.000316 µM) was 77.7%, the viability, T/C (second compound 1 µM, first compound 0.001 µM) was 74.5% and the viability, T/C (second compound 1 µM, first compound 0.00316 µM) was 69.2%. It also gave a viability, T/C (second compound 1 µM, first compound 0.01 µM) of 69.7%, a viability, T/C [7] of 85.2% and a viability, T/C [8] of 66.7%. It also gave a viability, T/C (second compound 3.16 µM, first compound 0.000316 µM) of 60.1%, a viability, T/C (second compound 3.16 µM, first compound 0.001 µM) of 57.9% and a viability, T/C (second compound 3.16 µM, first compound 0.00316 µM) of 62.7%. The viability, T/C (second compound 3.16 µM, first compound 0.01 µM) was 61.7%, the viability, T/C [9] was 57.9% and the viability, T/C [10] was 48%. The viability, T/C (second compound 10 µM, first compound 0.000316 µM) was 45.4%, the viability, T/C (second compound 10 µM, first compound 0.001 µM) was 40.6% and the viability, T/C (second compound 10 µM, first compound 0.00316 µM) was 36.6%. The viability, T/C (second compound 10 µM, first compound 0.01 µM) was 39.9%, the viability, T/C [11] was 47.4% and the viability, T/C [12] was 36.8%.

For `C[C@@H](NC(=O)c1ncnc(N)c1Cl)c1ncc(C(=O)Nc2cc(C(F)(F)F)c(Cl)cn2)s1` + COc1c(OCCCN2CCOCC2)ccc2c3n(c(=NC(=O)c4cnc(N)nc4)nc12)CCN3, the IC50 (second compound 0.00316 µM) was > 10 µM, the IC50 (second compound 0.01 µM) was > 10 µM and the IC50 (second compound 0.0316 µM) was > 10 µM. The IC50 (second compound 0.1 µM) was > 10 µM, the IC50 (second compound 0.316 µM) was < 0.0316 µM and the IC50 (second compound 1 µM) was < 0.0316 µM. The viability, T/C (second compound 0.00316 µM, first compound 0.0316 µM) was 89.7%, the viability, T/C (second compound 0.00316 µM, first compound 0.1 µM) was 88% and the viability, T/C (second compound 0.00316 µM, first compound 0.316 µM) was 95.1%. It also gave a viability, T/C (second compound 0.00316 µM, first compound 1 µM) of 112%, a viability, T/C (second compound 0.00316 µM, first compound 3.16 µM) of 131% and a viability, T/C (second compound 0.00316 µM, first compound 10 µM) of 136%. For the same compound, the viability, T/C (second compound 0.01 µM, first compound 0.0316 µM) was 96.6%, the viability, T/C (second compound 0.01 µM, first compound 0.1 µM) was 87% and the viability, T/C (second compound 0.01 µM, first compound 0.316 µM) was 96.2%. It also gave a viability, T/C (second compound 0.01 µM, first compound 1 µM) of 116%, a viability, T/C (second compound 0.01 µM, first compound 3.16 µM) of 98% and a viability, T/C (second compound 0.01 µM, first compound 10 µM) of 109%. For the same compound, the viability, T/C [1] was 94.3%, the viability, T/C [2] was 78.9% and the viability, T/C [13] was 86.7%. For the same compound, the viability, T/C [14] was 81.9%, the viability, T/C [15] was 92.7% and the viability, T/C [16] was 77.8%. For the same compound, the viability, T/C [3] was 68.7%, the viability, T/C [4] was 57.1% and the viability, T/C [17] was 69.2%. The viability, T/C [18] was 67.7%, the viability, T/C [19] was 71.3% and the viability, T/C [20] was 58.7%. The viability, T/C [5] was 42%, the viability, T/C [6] was 36.2% and the viability, T/C [21] was 35.7%. It also gave a viability, T/C [22] of 52.9%, a viability, T/C [23] of 43.3% and a viability, T/C [24] of 37.3%. For the same compound, the viability, T/C [7] was 22.3%, the viability, T/C [8] was 16.1% and the viability, T/C [25] was 19.3%. The viability, T/C [26] was 21.7%, the viability, T/C [27] was 29% and the viability, T/C [28] was 22.6%.

`CC1(C)CCC(CN2CCN(c3ccc(C(=O)NS(=O)(=O)c4ccc(NCC5CCOCC5)c([N+](=O)[O-])c4)c(Oc4cnc5[nH]ccc5c4)c3)CC2)=C(c2ccc(Cl)cc2)C1` + Cc1nc(NC(=O)N2CCCC2C(N)=O)sc1-c1ccnc(C(C)(C)C(F)(F)F)c1 gave an IC50 (second compound 0.0316 µM) of 9.83 µM, an IC50 (second compound 0.1 µM) of 8.62 µM and an IC50 (second compound 0.316 µM) of 8.31 µM. The IC50 (second compound 1 µM) was 6.15 µM, the IC50 (second compound 3.16 µM) was 4.84 µM and the IC50 (second compound 10 µM) was < 0.0316 µM. For the same compound, the viability, T/C [1] was 94%, the viability, T/C [2] was 91.8% and the viability, T/C [13] was 105%. For the same compound, the viability, T/C [14] was 110%, the viability, T/C [15] was 96.9% and the viability, T/C [16] was 49.3%. The viability, T/C [3] was 95.2%, the viability, T/C [4] was 102% and the viability, T/C [17] was 88.1%. The viability, T/C [18] was 102%, the viability, T/C [19] was 105% and the viability, T/C [20] was 42.8%. For the same compound, the viability, T/C [5] was 88.8%, the viability, T/C [6] was 84.9% and the viability, T/C [21] was 95.9%. The viability, T/C [22] was 93.2%, the viability, T/C [23] was 92.5% and the viability, T/C [24] was 42.1%. The viability, T/C [7] was 68.6%, the viability, T/C [8] was 83.4% and the viability, T/C [25] was 67.8%. It also gave a viability, T/C [26] of 82.6%, a viability, T/C [27] of 75.8% and a viability, T/C [28] of 31.6%. For the same compound, the viability, T/C [9] was 66.3%, the viability, T/C [10] was 60.9% and the viability, T/C (second compound 3.16 µM, first compound 0.316 µM) was 60.4%. For the same compound, the viability, T/C (second compound 3.16 µM, first compound 1 µM) was 61%, the viability, T/C (second compound 3.16 µM, first compound 3.16 µM) was 62.6% and the viability, T/C (second compound 3.16 µM, first compound 10 µM) was 29.3%. For the same compound, the viability, T/C [11] was 34.9%, the viability, T/C [12] was 41.8% and the viability, T/C (second compound 10 µM, first compound 0.316 µM) was 42.2%. For the same compound, the viability, T/C (second compound 10 µM, first compound 1 µM) was 54.4%, the viability, T/C (second compound 10 µM, first compound 3.16 µM) was 45.1% and the viability, T/C (second compound 10 µM, first compound 10 µM) was 15.4%.
